Assay results published in patent publication US20110275635A1 (priority 2009, published 2011).
In brackets after ≈: the same amount, converted by molar mass. Counter-ions that a name gives are not always drawn. Like-named read-outs stand apart in the source and are kept apart here.

How the values were obtained:
[1] = test system: Bacillus anthracis Sterne; experiment: microbe, parasite or virus in culture; type: cell-based; details: for MIC: Bacillus anthracis
[2] = target: B. anthracis NADs (Bacillus anthracis, UniProt Q81RP3); type: biochemical
[3] = In vivo toxicity, maximum tolerated dose; details: female, BALB/c, mouse, intraperitoneal

Chain of B. anthracis NADs (Q81RP3 whole entry, looked up): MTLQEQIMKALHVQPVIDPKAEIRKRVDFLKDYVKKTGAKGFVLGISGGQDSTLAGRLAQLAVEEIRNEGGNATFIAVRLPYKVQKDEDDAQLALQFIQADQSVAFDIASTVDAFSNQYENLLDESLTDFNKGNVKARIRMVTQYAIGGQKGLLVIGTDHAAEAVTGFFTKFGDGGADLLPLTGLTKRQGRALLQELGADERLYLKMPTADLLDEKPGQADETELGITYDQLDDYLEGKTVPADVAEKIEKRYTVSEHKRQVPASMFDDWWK

O=C(O)c1cn(C2CC2)c2cc(N3CCNCC3)c(F)cc2c1=O [Cipro, ciprofloxacin hydrochloride, reference compound]
MIC ([1]; read-out: B.a. MIC (μM)): 0.5 µM

Cc1ccc(-c2nc3cc(Cl)ccc3o2)cc1CC(=O)c1cc([N+](=O)[O-])c(C)c([N+](=O)[O-])c1 [Compound 5588]
IC50 ([2]; read-out: IC50): 78.5 µM
IC50 ([2]; read-out: NADs IC50): 84 ± 35 µM
MIC ([1]; 5 h, read-out: MIC100 (μM)): > 215 µM
MIC ([1]; read-out: B.a. MIC (μM)): > 240 µM

O=C1C=C(Nc2ccccc2C(=O)O)C(=O)C=C1Nc1ccccc1C(=O)O [Compound 5589]
IC50 ([2]; read-out: IC50): 137 µM
IC50 ([2]; read-out: NADs IC50): 118 ± 67 µM
MIC ([1]; read-out: B.a. MIC (μM)): > 264 µM

O=[N+]([O-])c1ccc(-c2cnc(N/N=C/c3cccc([N+](=O)[O-])c3)nc2)cc1 [Compound 5591]
IC50 ([2]; read-out: IC50): 160 µM
IC50 ([2]; read-out: NADs IC50): 160 ± 57 µM
MIC ([1]; read-out: B.a. MIC (μM)): > 274 µM

CCOC(=O)C1=C(Nc2cccc3ccccc23)S/C(=C\c2ccc([N+](=O)[O-])cc2)C1=O [Compound 5597]
IC50 ([2]; read-out: IC50): 86.1 µM
IC50 ([2]; read-out: NADs IC50): 86 ± 33 µM
MIC ([1]; read-out: B.a. MIC (μM)): > 224 µM

CCc1ccc(S(=O)(=O)Nc2c([N+](=O)[O-])ccc3ccccc23)cc1 [Compound 5599]
MIC ([1]; 5 h, read-out: MIC100 (μM)): 3.75 µM (≈ 1.34 µg/mL)

O=C(CCC(=O)Nc1ccc(Nc2ccccc2)cc1)Nc1ccc(Nc2ccccc2)cc1 [Compound 5604]
IC50 ([2]; read-out: IC50): 141 µM
IC50 ([2]; read-out: NADs IC50): 256 ± 210 µM
MIC ([1]; read-out: B.a. MIC (μM)): > 222 µM

O=C(Nc1ccc([N+](=O)[O-])cc1)c1ccc(-c2nnc(-c3ccccc3)o2)cc1 [Compound 5605]
IC50 ([2]; read-out: IC50): 146 µM
IC50 ([2]; read-out: NADs IC50): 146 ± 0.2 µM
MIC ([1]; 5 h, read-out: MIC100 (μM)): > 259 µM
MIC ([1]; read-out: B.a. MIC (μM)): > 259 µM

O=C(COC(=O)c1ccc(NC(=O)c2ccc([N+](=O)[O-])cc2)cc1)c1ccc(F)cc1 [Compound 5606]
IC50 ([2]; read-out: IC50): 141 µM
IC50 ([2]; read-out: NADs IC50): 176 ± 49 µM
MIC ([1]; read-out: B.a. MIC (μM)): > 237 µM

COc1ccc(CCNC(=O)NCc2cccc(CNC(=O)NCCc3ccc(OC)cc3)c2)cc1 [Compound 5609]
IC50 ([2]; read-out: IC50): 70 µM
IC50 ([2]; read-out: NADs IC50): 70 µM
MIC ([1]; read-out: B.a. MIC (μM)): > 204 µM

O=C(Cn1cc(/C=C/c2[nH]c(=O)[nH]c(=O)c2[N+](=O)[O-])c2ccccc21)Nc1ccc(F)cc1 [Compound 5615]
IC50 ([2]; read-out: IC50): 55.4 µM
IC50 ([2]; read-out: NADs IC50): 55.4 µM
MIC ([1]; 5 h, read-out: MIC100 (μM)): > 223 µM

Nc1ncnc(Nc2ccc(Cl)cc2C(=O)c2ccccc2Cl)c1[N+](=O)[O-] [Compound 5616]
IC50 ([2]; read-out: IC50): 208 µM
IC50 ([2]; read-out: NADs IC50): 231 ± 36 µM
MIC ([1]; read-out: B.a. MIC (μM)): > 247 µM

O=C(Nc1ccc(S(=O)(=O)Nc2ncccn2)cc1)Nc1ccc(Cl)c(Cl)c1 [Compound 5617]
activity against B. anthracis (in words) [1]: good activities
MIC ([1]; read-out: B.a. MIC (μM)): 15 µM (≈ 6.57 µg/mL)

O=[N+]([O-])c1ccc(O)c(/C=N/c2cccc(O)c2)c1 [Compound 5660]
IC50 ([2]; read-out: IC50): 22.5 µM
IC50 ([2]; read-out: NADs IC50): 22.5 µM
MIC ([1]; read-out: B.a. MIC (μM)): > 387 µM

NC(=O)c1ccc(/N=C/c2cc([N+](=O)[O-])ccc2Cl)cc1 [Compound 5679]
IC50 ([2]; read-out: IC50): 262 µM
IC50 ([2]; read-out: NADs IC50): 262 ± 8 µM
MIC ([1]; read-out: B.a. MIC (μM)): > 329 µM

O=C(Nc1cccc(/N=C/c2cc([N+](=O)[O-])ccc2O)c1)c1cccc(Br)c1 [Compound 5684]
IC50 ([2]; read-out: IC50): 99.5 µM
IC50 ([2]; read-out: NADs IC50): 99 ± 12 µM
MIC ([1]; read-out: B.a. MIC (μM)): > 227 µM

O=C(Nc1cccc(/N=C/c2cc([N+](=O)[O-])ccc2O)c1)c1ccc(Cl)cc1Cl [Compound 5691]
IC50 ([2]; read-out: IC50): 106 µM
IC50 ([2]; read-out: NADs IC50): 106 ± 2 µM
MIC ([1]; read-out: B.a. MIC (μM)): > 232 µM

COc1ccc(NC(=O)Nc2cccc(NC(=O)Nc3ccc(OC)cc3)c2F)cc1 [Compound 5707]
IC50 ([2]; read-out: IC50): 253 µM
IC50 ([2]; read-out: NADs IC50): 253 ± 65 µM
MIC ([1]; read-out: B.a. MIC (μM)): > 240 µM

Cc1ccc(C(=O)Nc2cccc(-c3nc4ccccc4[nH]3)c2)cc1 [Compound 5710]
IC50 ([2]; read-out: IC50): 128 µM
IC50 ([2]; read-out: NADs IC50): 189 ± 86 µM
MIC ([1]; read-out: B.a. MIC (μM)): > 240 µM

COc1ccc(Oc2ccc([N+](=O)[O-])cc2C(=O)Nc2ccc(S(N)(=O)=O)cc2)cc1 [Compound 5724]
IC50 ([2]; read-out: IC50): 291 µM
IC50 ([2]; read-out: NADs IC50): 291 ± 29 µM
MIC ([1]; read-out: B.a. MIC (μM)): > 240 µM

Cc1cc(-c2nnc(CSc3nnc(NC(=O)c4ccc(F)c(Cl)c4)s3)o2)ccc1[N+](=O)[O-] [Compound 5731]
IC50 ([2]; read-out: IC50): 271 µM
IC50 ([2]; read-out: NADs IC50): 270 ± 3 µM
MIC ([1]; read-out: B.a. MIC (μM)): > 240 µM

COc1ccccc1NC(=O)NC(=O)c1ccc(-c2csnn2)cc1 [Compound 5737]
IC50 ([2]; read-out: IC50): 235 µM
IC50 ([2]; read-out: NADs IC50): 235 ± 71 µM
MIC ([1]; read-out: B.a. MIC (μM)): > 240 µM

Cc1onc(-c2ccccc2)c1NC(=O)Nc1ccc(Oc2ncnc3cc(Cl)ccc23)nc1 [Compound 5763]
IC50 ([2]; read-out: IC50): 232 µM
IC50 ([2]; read-out: NADs IC50): 232 ± 55 µM
MIC ([1]; read-out: B.a. MIC (μM)): > 240 µM

COc1ccc(NC(=O)Nc2ccc(Oc3ncnc4cc(Cl)ccc34)nc2)cc1OC1CCCC1 [Compound 5764]
IC50 ([2]; read-out: IC50): 97.2 µM
IC50 ([2]; read-out: NADs IC50): 97 ± 55 µM
MIC ([1]; read-out: B.a. MIC (μM)): > 240 µM

Nc1c(C(=O)c2ccc([N+](=O)[O-])cc2)sc(Nc2ccccc2)c1-c1nc2ccccc2[nH]1 [Compound 5768]
IC50 ([2]; read-out: IC50): 170 µM
IC50 ([2]; read-out: NADs IC50): 170 ± 48 µM
MIC ([1]; read-out: B.a. MIC (μM)): > 240 µM

N/C(=N\OC(=O)c1ccc(Cl)c(Cl)c1)c1cccc(CSc2ccccn2)c1 [Compound 5775]
IC50 ([2]; read-out: IC50): 290 µM
IC50 ([2]; read-out: NADs IC50): 290 µM
MIC ([1]; read-out: B.a. MIC (μM)): > 240 µM

O=C(Nc1ccc(/N=N/c2ccccc2)cc1)c1ccc([N+](=O)[O-])cc1 [Compound 5792]
IC50 ([2]; read-out: IC50): 76 µM
IC50 ([2]; read-out: NADs IC50): 76 ± 13 µM
MIC ([1]; read-out: B.a. MIC (μM)): > 240 µM

O=C(Nc1ccccc1)Nc1ccc(NC(=O)c2ccc(NC(=O)Nc3ccccc3)cc2)cc1 [Compound 5793]
IC50 ([2]; read-out: IC50): 78.8 µM
IC50 ([2]; read-out: NADs IC50): 79 ± 38 µM
MIC ([1]; read-out: B.a. MIC (μM)): > 240 µM

O=C(Nc1ccc2oc(-c3cc(Br)ccc3Cl)nc2c1)c1cccc([N+](=O)[O-])c1 [Compound 5798]
IC50 ([2]; read-out: IC50): 61.8 µM
IC50 ([2]; read-out: NADs IC50): 61.8 µM
MIC ([1]; 5 h, read-out: MIC100 (μM)): > 240 µM

O=C(Nc1cccc(Oc2ccc3c(c2)C(=O)N(c2ccccc2)C3=O)c1)c1cccc([N+](=O)[O-])c1 [Compound 5799]
IC50 ([2]; read-out: IC50): 175 µM
IC50 ([2]; read-out: NADs IC50): 202 ± 38 µM
MIC ([1]; read-out: B.a. MIC (μM)): > 240 µM

O=C(Nc1cccc(C(=O)Nc2cccc3ccccc23)c1)c1cccc([N+](=O)[O-])c1 [Compound 5802]
IC50 ([2]; read-out: IC50): 225 µM
IC50 ([2]; read-out: NADs IC50): 225 ± 36 µM
MIC ([1]; read-out: B.a. MIC (μM)): > 240 µM

Cc1cc(C)c2oc(-c3cccc(NC(=O)/C=C/c4cccc([N+](=O)[O-])c4)c3)nc2c1 [Compound 5806]
IC50 ([2]; read-out: IC50): 67.8 µM
IC50 ([2]; read-out: NADs IC50): 68 ± 5 µM
MIC ([1]; read-out: B.a. MIC (μM)): > 240 µM

COc1cccc(NC(=O)Nc2nnc(COc3ccc([N+](=O)[O-])cc3)s2)c1 [Compound 5807]
IC50 ([2]; read-out: IC50): 124 µM
IC50 ([2]; read-out: NADs IC50): 124 ± 5 µM
MIC ([1]; read-out: B.a. MIC (μM)): > 240 µM

O=C(Nc1ccc(Cc2ccc(NC(=O)c3ccc4c(c3)OCO4)cc2)cc1)c1ccc2c(c1)OCO2 [Compound 5818]
IC50 ([2]; read-out: IC50): 65.7 µM
IC50 ([2]; read-out: NADs IC50): 65.7 µM
MIC ([1]; 5 h, read-out: MIC100 (μM)): > 240 µM

NC(=O)c1ccc(NC(=O)c2ccc(Oc3ccc([N+](=O)[O-])cc3Cl)cc2)cc1 [Compound 5821]
IC50 ([2]; read-out: IC50): 104 µM
IC50 ([2]; read-out: NADs IC50): 130 ± 37 µM
MIC ([1]; read-out: B.a. MIC (μM)): > 240 µM

COc1ccccc1NC(=O)COc1ccc(/C=C(/C#N)c2nc3ccccc3[nH]2)cc1 [Compound 5822]
IC50 ([2]; read-out: IC50): 107 µM
IC50 ([2]; read-out: NADs IC50): 178 ± 102 µM
MIC ([1]; read-out: B.a. MIC (μM)): > 240 µM

Cc1c(NC(=O)c2ccc(N3CCCC3)c([N+](=O)[O-])c2)cccc1-c1nc2ccccc2[nH]1 [Compound 5830]
IC50 ([2]; read-out: IC50): 198 µM
IC50 ([2]; read-out: NADs IC50): 193 ± 8 µM
MIC ([1]; read-out: B.a. MIC (μM)): > 240 µM

O=C(NC(=S)Nc1cc(-c2nc3ccccc3[nH]2)ccc1Cl)c1ccccc1[N+](=O)[O-] [Compound 5831]
IC50 ([2]; read-out: IC50): 243 µM
IC50 ([2]; read-out: NADs IC50): 243 ± 38 µM
MIC ([1]; read-out: B.a. MIC (μM)): > 240 µM

O=C(CSc1nc(Nc2ccccc2)nc(N2CCOCC2)n1)Nc1ccc([N+](=O)[O-])cc1O [Compound 5833]
activity against B. anthracis (in words) [1]: good activities
MIC ([1]; read-out: B.a. MIC (μM)): 15 µM (≈ 7.25 µg/mL)

O=C(Nc1ccc(S(=O)(=O)Nc2cccc(C(F)(F)F)c2)cc1)Nc1cccc(Cl)c1 [Compound 5991]
MTD [3]: 10 mg/kg

COc1cccc(NC(=O)Nc2ccc(S(=O)(=O)Nc3ccc(Cl)c(Cl)c3)cc2)c1 [Compound 6325]
MTD [3]: 50 mg/kg
